Values after ≈ are worked out from the molar mass of the structure shown.
Tests used:
[1] = system: Burkholderia cepacia; test: MIC broth dilution assay; type: cell-based; conditions: B. cepacia, read-out: minimum inhibitory concentration
Experimental: (§1) Both about 1-10 kDa fractions of poly(trimethylene dipyridine-alt-octane chloride) (TMDP-C8) and about 1.2 kDa poly(trimethylene dipyridine-alt-2,7-dihydroxyoctane chloride) (TMDP-C8(OH)2) have broad, though not identical antimicrobial activity.
(§2) Poly(trimethylene dipyridine-alt-5-oxanonane) having a molecular weight 0.5-1 kDa was tested in A-549 lung epithelial cells to determine its IC50 value in comparison with tobramycin, a conventional antibiotic. In addition, the minimum inhibitory concentrations for the two compounds were determined in vitro for a number of bacterial strains and species. The results are as shown below, where all concentrations are expressed as μg/mL: […]

[2] = system: Staphylococcus aureus; test: MIC broth dilution assay; type: cell-based; conditions: S. aureus, read-out: minimum inhibitory concentration
Experimental: as §1, §2

[3] = system: Pseudomonas aeruginosa; test: MIC broth dilution assay; type: cell-based
Experimental: as §1, §2

[4] = system: Stenotrophomonas maltophilia; test: MIC broth dilution assay; type: cell-based; conditions: S. maltophilia, read-out: minimum inhibitory concentration
Experimental: as §1, §2

[5] = system: A-549 lung epithelial cell line; test: Alamar Blue in vitro cytotoxicity; type: cell-based
Experimental: The oligomers were screened for in vitro cytotoxicity following 18-24 hr exposure using the metabolic indicator Alamar Blue™ (Alamar Biosciences, Sacramento, Calif.) against the A-549 lung epithelial cell line according to the manufacturer's instructions. Briefly, flat-bottom polystyrene microtiter plates were seeded with 2×10^4 cells in Ham's F-12 medium (Invitrogen) containing 10% fetal bovine serum (FBS) and were incubated ˜48 hr at 37° C., until cells were confluent. Medium was then aspirated off and replaced with medium lacking FBS. The oligomers were added to the first row (final concentration 5 mg/ml) and serial 2-fold dilutions were prepared across the plate. Plates were incubated 18-24 hr at 37° C.; medium containing test compounds was aspirated off, wells were washed once with PBS and fresh medium (lacking FBS and phenol red) was added. Alamar Blue™ was added (final concentration 30%); cells were incubated 4 hr and absorbance was read at 570 nm. The IC50 was then calculated.
as §2

[6] = system: MRSA; conditions: over 15 passages, published studies; cited from earlier work
[7] = system: P. aeruginosa; conditions: within 11 passages, published studies; cited from earlier work
[8] = parameters: species or system pigs; conditions: pig, in vivo
Experimental: The non-substituted C8-containing compound TMDP-C8 (about 1-10 kDa) was tested at 10 mg/ml for its ability to reduce S. aureus infections introduced into dermal wounds in pigs.

Which MIC [1] does the source give for `NC[C@H]1O[C@H](O[C@H]2[C@H](O)[C@@H](O[C@H]3O[C@H](CO)[C@@H](O)[C@H](N)[C@H]3O)[C@H](N)C[C@@H]2N)[C@H](N)C[C@@H]1O` [Tobramycin, tobramycin] here?
Its MIC is over 50 µg/mL.

And the MIC [2]?
The MIC was 0.195 µg/mL (≈ 0.417 µM).

What about the minimum inhibitory concentration ([3]; P. aeruginosa PA01) of the same compound?
The minimum inhibitory concentration was 0.39 µg/mL (≈ 0.834 µM).

And the MIC ([3]; Pseudomonas aeruginosa, P. aeruginosa G38, read-out: minimum inhibitory concentration)?
The MIC was 0.39 µg/mL (≈ 0.834 µM).

What about the MIC [4] of the same compound?
Its MIC is 25 µg/mL (≈ 53.5 µM).

What about the IC50 ([5]; Homo sapiens, A549, A-549 lung epithelial cells) of the same compound?
Its IC50 is 5000 µg/mL (≈ 10700 µM).

What does the source list for `CCn1cc(C(=O)O)c(=O)c2cc(F)c(N3CCNCC3)cc21` [norfloxacin]?
rise of MIC [6]: 85 fold; rise of MIC [7]: 10 fold

With gentamicin as the compound, how does the “rise of MIC” value [7] read?
The value was 190 fold.

Which “effect on wound healing” value [8] does the source give for “poly(trimethylene dipyridine-alt-octane chloride) [TMDP-C8]” here?
Its value is “did not inhibit or retard healing”.

With “poly(trimethylene dipyridine-alt-octane) [TMDP-C8 1-3k]” as the compound, how does the “IC50, In vitro Cytotoxicity of Compounds Tested in First Rat Lung Study” value [5] read?
The value was 322 µg/mL.

With “poly(trimethylene dipyridine-alt-octane) [TMDP-C8 >1k]” as the compound, how does the “IC50, In vitro Cytotoxicity of Compounds Tested in First Rat Lung Study” value [5] read?
The value was 30 µg/mL.

Reference: patent US20060002887A1, “Ionene oligomers and polymers” (Genzyme Corporation, priority 2002, published 2006)
